In patent US20260184721A2, “FUSED RING COMPOUND, CONJUGATE THEREOF AND USE THEREOF” (Keymed Biosciences (Chengdu) Co., Ltd., priority 2022, published 2026):
pIC50: −log10 of the molar value.

Assays:
NCI-N87 tumor cells = experiment: In vitro proliferation inhibitory activity of compounds of Formula (GH) on NCI-N87 tumor cells (CCK8); format: cell-based, human; conditions: Homo sapiens, NCI-N87, […], read-out: IC50 for inhibiting proliferation of NCI-N87 cells in vitro
Description: The objective of this experiment is to detect the in vitro killing activity of the compound of Formula (GH) disclosed in the present invention on NCI-N87 tumor cells (human gastric cancer cells, Cell Resource Center, Institute of Basic Medicine, Chinese Academy of Medical Sciences, Catalog No. 3111C0001CCC000481). The cells were treated with different concentrations of the compound in vitro, and after 6 days of culture, the number of viable cells was detected using CCK8 (Cell Counting Kit-8, Catalog No. TS547) reagents, and the in vitro activity of the test compound was evaluated according to the IC50 value.
• (1) Cell culture: NCI-N87 cells were cultured in the RPMI 1640 medium containing 2% FBS (Shanghai BasalMedia Technologies Co., Ltd., Catalog No. L210KJ). • (2) Cell preparation: NCI-N87 cells in the logarithmic growth phase were taken, washed once with PBS (phosphate buffered saline, Shanghai BasalMedia Technologies Co., Ltd., Catalog No. E211004), added with 1 mL of trypsin (0.25% Trypsin-EDTA (1×), Shanghai BasalMedia Technologies Co., Ltd., Catalog No. A121002) to allow digestion for 2 to 3 minutes. After the cells were completely digested, 10 mL of the cell culture medium was added to wash off and obtain the digested cells, centrifugation was performed at 300 times gravitational acceleration (g) for 5 min, the supernatant was discarded, then 10 mL of PBS was added to wash the cells once, centrifugation was performed at 300 times gravitational acceleration (g) for 5 minutes, the supernatant was discarded, and 10 mL of the cell culture medium containing 2% FBS was added to resuspend the cells to prepare a single cell suspension. • (3) Cell plating: The NCI-N87 single cell suspension was mixed, the density of live cells was adjusted to 3×10^4 cells/mL with 2% FBS cell culture medium, the cell suspension after density adjustment was mixed well, and added to a 96-well cell culture plate at 100 μL/well. Only 200 μL of PBS was added to each of the peripheral wells of the 96-well plate. The plate was incubated in an incubator for 24 hours (37° C., 5% CO2). • (4) Preparation of sample to be tested:
The sample to be tested was diluted to 3200 nM with cell culture medium containing 2% FBS, then 300 μL of the sample was added to the first well of a 96-well U-bottomed plate with a sample concentration of 3200 nM; and 210 μL of cell culture medium containing 2% FBS was added to each well of the second to tenth columns. 70 μL of the sample was taken from the first column and added to the 210 μL cell culture medium in the second column and mixed well, 70 μL was taken and added to the third column, and so on to the ninth column. • (5) Sample loading operation: 100 μL of the sample to be tested with different concentrations was added to the culture plate, two replicate wells were set for each sample. The culture plate was incubated in an incubator for 6 days (37° C., 5% CO2). • (6) Color development operation: The 96-well cell culture plate was taken out, the supernatant of the culture medium was removed by tapping, 100 μL of 10% CCK8 (prepared with RPMI 1640 basal culture medium, without FBS) solution was added to each well, and incubation was performed in an incubator for 2 hours. • (7) Plate reading operation: The 96-well cell culture plate was taken out, placed in an ELISA reader (SpectraMax i3X), and A450 was determined by the ELISA reader. • (8) Data analysis: Microsoft Excel and Graphpad Prism 5 were used to process and analyze the data.

SK-BR-3 tumor cells = experiment: In vitro proliferation inhibitory activity of compounds of Formula (GH) on SK-BR-3 tumor cells (CCK8); format: cell-based; conditions: Homo sapiens, SK-BR-3, 72 h, 3 days of culture, read-out: IC50 for inhibiting proliferation of SK-BR-3 cells in vitro
Description: The objective of this experiment is to detect the in vitro killing activity of the compound of Formula (GH) of the present disclosure on SK-BR-3 tumor cells (human breast cancer cells, Wuhan Procell, Catalog No. CL-0211). The cells were treated with different concentrations of the compound in vitro. After 3 days of culture, the number of viable cells was detected using CCK8 (Cell Counting Kit-8, Catalog No. TS547) reagents, and the in vitro activity of the test compound was evaluated according to the IC50 value.
Taking the test method of in vitro killing activity on SK-BR-3 cells as an example, the following test was performed. […] After the cells were completely digested, 10 mL of cell culture medium containing 2% FBS was added to wash out the digested cells, centrifugation was performed at 300 g for 5 min, the supernatant was discarded, and then 10 to 20 mL of cell culture medium containing 2% FBS was added to resuspend the cells to prepare a single cell suspension. • (3) Cell plating: The SK-BR-3 single cell suspension was mixed well, the viable cell density was adjusted to 6×10^4 cells/mL with the cell culture medium containing 2% FBS, the cell suspension after density adjustment was mixed well, and added to a 96-well cell culture plate at 100 μL/well. Only 200 μL of PBS was added to the peripheral wells of the 96-well plate. The culture plate was incubated in an incubator for 24 hours (37° C., 5% CO2). • (4) Compound preparation: The compound was dissolved in DMSO (dimethyl sulfoxide, SIGMA) to prepare a 2 mM stock solution.
The starting concentrations of small molecule compounds and Dxd were both 600 nM, and the preparation method was as follows.
Then, 315 μL of different samples to be tested were added to the first column of a 96-well U-bottomed drug distribution plate, and the sample concentration was 1200 nM; 210 μL of the cell culture medium containing 2% FBS was added to each well of the second to tenth columns. 105 μL of the sample was taken from the first column and added to the 210 μL cell culture medium in the second column and mixed well, and 105 μL was taken and added to the third column, and so on to the tenth column. • (5) Sample loading operation: 100 μL of the sample to be tested of different concentrations was added to the culture plate, and two replicate wells were set for each sample. The culture plate was incubated in an incubator for 3 days (37° C., 5% CO2). • (6) Color development operation: The 96-well cell culture plate was taken out, the cell culture supernatant was removed by tapping, 100 μL of the RPMI 1640 basal medium (without FBS) containing 10% CCK8 was added, and then it was incubated in an incubator for about 1.5 hours (37° C., 5% CO2). • (7) Plate reading operation: The 96-well cell culture plate was taken out, placed in an ELISA reader (MD SpectraMax i3X), and A450 was determined by the ELISA reader. • (8) Data analysis: Microsoft Excel and Graphpad Prism 5 were used to process and analyze the data.

Molecule `Cc1c(F)cc2nc3c(c4c2c1CC[C@@H]4NC(=O)[C@@H](O)C1CC1)Cn1c-3cc2c(c1=O)COC(=O)[C@]2(O)CC1CC1` [Compound 4-A, (S)-2-Cyclopropyl-N-((1S,9S)-9-(cyclopropylmethyl)-5-fluoro-9-hydroxy-4-methyl-10,13-dioxo-2,3,9,10,13,15-hexahydro-1H,12H-benzo[de]pyrano[3′,4′:6,7]indolizino[1,2-b]quinolin-1-yl)-2-hydroxyacetamide] has a pIC50 (NCI-N87 tumor cells) of 8.62 and a pIC50 (SK-BR-3 tumor cells) of 8.19.

Work on `Cc1c(F)cc2nc3c(c4c2c1CC[C@H]4NC(=O)[C@H](O)C1CC1)Cn1c-3cc2c(c1=O)COC(=O)[C@]2(O)CC1CC1` [Compound 5-B, (R)-2-Cyclopropyl-N-((1R,9S)-9-(cyclopropylmethyl)-5-fluoro-9-hydroxy-4-methyl-10,13-dioxo-2,3,9,10,13,15-hexahydro-1H,12H-benzo[de]pyrano[3′,4′:6,7]indolizino[1,2-b]quinolin-1-yl)-2-hydroxyacetamide] yielded a pIC50 (NCI-N87 tumor cells) of 8.53 and a pIC50 (SK-BR-3 tumor cells) of 8.31.

`CC[C@@]1(O)C(=O)OCc2c1cc1n(c2=O)Cc2c-1nc1cc(F)c3c(c1c2CNC(=O)[C@H](C)O)CCC3` [Compound 25, (S)-N-(((S)-8-Ethyl-4-fluoro-8-hydroxy-9,12-dioxo-2,3,8,9,12,14-hexahydro-1H,11H-cyclopenta[f]pyrano[3′,4′:6,7]indolizino[1,2-b]quinolin-15-yl)methyl)-2-hydroxypropanamide] showed a pIC50 (NCI-N87 tumor cells) of 8.26 and a pIC50 (SK-BR-3 tumor cells) of 8.27.
